What all share (format): physicochemical
One data set can be described thus: Solubility in water. How it is done:
Therefore, when the procedure to obtain tablets comprising solifenacin fumarate is carried out by wet granulation, the presence of water is not such an important factor.
However, the low solubility of the solifenacin fumarate avoids this problem. The difference in solubility also makes it easier to obtain solid pharmaceutical compositions of solifenacin fumarate since the drying phase is reduced.

Data set [1] in a line: Stability of tablets of solifenacin salts over 0, 3 and 6 months (Example 9). The settings on record: for DESCRIPTION: film-coated tablets (Example 8); for course of the amount of F1 impurity: 6 month period. How it is done:
To test the stability of solifenacin fumarate, tablets are prepared by wet granulation following the procedure disclosed in US 2008/039516, the contents of which are incorporated in their entirety. A specific example of preparing a tablet containing solifenacin fumarate is given in […] below.
25 parts by weight of Hypromellose (Pharmacoat 603) are dissolved and agitated in 130 parts of purified water with an air motor stirrer (IMA) to prepare a binder solution (at a concentration of 20.0% (w/v)). Then, 50 parts of solifenacin salt, 389 parts of lactose monohydrate (Granulac) and 128 parts of corn starch (C*PharmGel 03406) are mixed together (pre-mix) in a single pot granulator (IMA Zanchetta 3 L capacity).
The binder solution is sprayed over the pre-mix at room temperature with a flow rate of 60 ml/min, impeller speed of 300 rpm and chopper speed of 1500 rpm for wet granulation. After spraying, kneading takes place for 3 min with impeller speed of 300 rpm. After granulation, the granules are dried at a charged temperature of the jacket bowl of 80° C. under vacuum conditions, tilting movement of the bowl of 90° and intermittent speed (120 rpm) of the impeller for 120 seconds.
The granules are dried until a final moisture of 2.5%-1.0% has been reached. 6 parts of magnesium stearate are added to the dried granules for blending with a biconic mixer (SAR Labortecnic). Thereafter, the resulting mixture is compressed with a rotary tabletting machine (KILIAN IMA Pressima) with 6.0 mm punches at a compression pressure sufficient to achieve a hardness of the tablet of more than 50 N and a tablet weight of 60 mg.
The resulting tablets are coated in a non perforated pan (IMA, type HT25). Coating is performed with a solution prepared by dissolving 20 parts of Opadry II pink (Colorcon) in 200 parts of purified water using an air motor stirrer (IMA). Coating is achieved at a charge air temperature of 60-80° C., a pan rotation velocity of 6-13 rpm, and coating fluid feed rate of 16-40 ml/min for a 3.3% ratio of the component to the tablet weight, to obtain the film-coated tablet.
The stability of tablets formulated with solifenacin succinate and solifenacin fumarate, respectively, was tested in a side-by-side comparison. […] For both salts the amount of solifenacin was assayed by HPLC at 0, 3 and 6 months and the amount of “F1 impurity” was also measured. The results are provided in the tables below and are illustrated in FIGS. 9 and 10.

The nature of data set [2]: Stability of the solid salt on standing (colour, UV-HPLC method 2). How it is done:
HPLC Method 2: To Follow the End Points of the Reactions Performed and the Rest of the Impurities:
(§1) 10 g of solifenacin succinate (example 2) were dissolved in 15 mL of water. The solution was frozen by nitrogen liquid and was placed in the freeze-drying equipment at −60° C. under vacuum.

Data set [3] in a line: Conversion of the crystalline salt to the amorphous form (lyophilization, vacuum evaporation; PXRD, DSC). The note with it: for solid form after lyophilization of an aqueous solution: freeze-drying, -60° C. under vacuum, 15 hours, PXRD and DSC. How it is done:
as §1
10 g of solifenacin fumarate (example 1) were dissolved in 600 ml of water at 60° C. The solution was frozen by nitrogen liquid and was placed in the freeze-drying equipment at −60° C. under vacuum.
5 g of solifenacin fumarate (example 1) was dissolved in 50 ml of methanol (1% of water) and evaporated under vacuum at 50° C.

Experimental findings from patent US8765785B2, “Solifenacin salts” (Crystal Pharma, S.A.U., priority 2010, dated 2014) are described below.

Where two headings read alike, the source gives them in different places. Some results are limits rather than exact numbers.

solifenacin fumarate returned a solubility in water in “Solubility in water” of 11.25 mg/mL. Moreover, the DESCRIPTION result in data set [1] (3 MONTHS), in data set [1] (6 MONTHS) and in data set [1] (INITIAL) was “pink biconvex” in each case. Moreover, the “ASSAY AMOUNT (amount of solifenacin by HPLC)” value (shortened to “ASSAY AMOUNT”) turned out to be 99.4% in data set [1] (tablets, 3 MONTHS); 99.6% in data set [1] (tablets, 6 MONTHS); 98.2% in data set [1] (tablets, INITIAL). In addition, the “CHROMATOGRAPHIC IMPURITY (F1 impurity)” value is <0.05% in data set [1] (tablets, 3 MONTHS); <0.05% in data set [1] (tablets, 6 MONTHS); <0.05% in data set [1] (tablets, INITIAL). The HARDNESS in data set [1] (tablets, 3 MONTHS) came out at 73N; in data set [1] (tablets, 6 MONTHS), 66N; in data set [1] (tablets, INITIAL), 75N. Besides, the “LOSS ON DRYING” value in data set [1] (tablets, 3 MONTHS) amounted to 2.01%; in data set [1] (tablets, 6 MONTHS), 2.24%; in data set [1] (tablets, INITIAL), 2.05%. Also, the “MEDIUM WEIGHT” value was 124.21 mg in data set [1] (tablets, 3 MONTHS); 125.51 mg in data set [1] (tablets, 6 MONTHS); 124.54 mg in data set [1] (tablets, INITIAL). The “course of the amount of F1 impurity” value in data set [1] (tablets) is listed as “remains at the constant low level”. For the same compound, in data set [1] (tablets, 6 month side-by-side comparison), the “stability in tablets, conclusion in words” value is “much more stable than the succinate salt”. Moreover, the “colouring / instability on standing” value in data set [2] (crystalline forms) is listed as “do not have this problem”. Further, the “solid form after lyophilization of an aqueous solution” value in data set [3] is reported as “crystalline form”; in data set [3] (listed as fumarate salt), “remains crystalline”. Further, the “solid form after evaporation under vacuum” value in data set [3] (methanol (1% of water), evaporated under vacuum at 50° C.) is “crystalline form”.

Consider `O=C(O[C@H]1CN2CCC1CC2)N1CCc2ccccc2[C@@H]1c1ccccc1` [amorphous form of solifenacin succinate, solifenacin succinate], for which the “amount of new impurity with relative retention time 0.93” value in data set [2] (left to stand for ten days, HPLC method 2) is on record as 0.14%. Besides, the “time until the white solid turned colored” value in data set [2] (solid on standing) lay in the range of 2 to 3 days. In addition, in data set [2] (three days after freeze-drying), the “colour change of the white solid” value is given as “turned brown-colored”.

As to `O=C(O[C@H]1CN2CCC1CC2)N1CCc2ccccc2[C@@H]1c1ccccc1` [solifenacin succinate], the solubility in “Solubility in water” was 727 mg/mL. The DESCRIPTION result in data set [1] (3 MONTHS) was “pink biconvex”. Further, the DESCRIPTION entry in data set [1] (6 MONTHS) is reported as “pink biconvex”. The DESCRIPTION entry in data set [1] (INITIAL) is recorded as “pink biconvex”. Moreover, in data set [1] (tablets, 3 MONTHS), the “ASSAY AMOUNT” value is reported as 96.8%, the “CHROMATOGRAPHIC IMPURITY (F1 impurity)” value was <0.06%, the HARDNESS is on record as 98N and the “LOSS ON DRYING” value worked out at 2.43%. The “MEDIUM WEIGHT” value in data set [1] (tablets, 3 MONTHS) stood at 124.80 mg. Moreover, in data set [1] (tablets, 6 MONTHS), the “ASSAY AMOUNT” value turned out to be 94.7%, the “CHROMATOGRAPHIC IMPURITY (F1 impurity)” value amounted to 0.91%, the HARDNESS came out at 102N and the “LOSS ON DRYING” value amounted to 2.39%. Besides, the “MEDIUM WEIGHT” value in data set [1] (tablets, 6 MONTHS) is on record as 126.26 mg. The “course of the amount of F1 impurity” value in data set [1] (tablets) is reported as “increases in the 6 month period”. Moreover, in data set [1] (tablets, INITIAL), the “ASSAY AMOUNT” value turned out to be 98.7%, the “CHROMATOGRAPHIC IMPURITY (F1 impurity)” value is reported as <0.05%, the HARDNESS stood at 98N and the “LOSS ON DRYING” value is reported as 2.40%. In addition, in data set [1] (tablets, INITIAL), the “MEDIUM WEIGHT” value is 125.57 mg. Further, the “colouring / instability on standing” value in data set [2] is listed as “do not have this problem”. The “solid form after lyophilization of an aqueous solution” value in data set [3] is “quite easy to obtain the desired amorphous form”.
